Assay results from US20050142169A1, “Palatability enhanced composition and method for animal consumption” (priority 2003, published 2005).

System: cats
Experiment: two-bowl preference test, Example 7 (Feline w/d)
Type: in vivo, cat
Settings: dry wt. of kibble
Source text: Finally, a commercial dry palatant enhancer (1.4% dry weight basis) was topically applied to the dry kibbles to complete the test composition.

[1] = Exp. No. 1, second set of experiments, 5 ppm
[2] = Exp. No. 2, second set of experiments, 20 ppm

## CCC1OC(C)=C(O)C1=O (stereo not shown) [5-methyl-2-ethyl-4-hydroxy-3(2H)-furanone]
Exp. No. 1, 5 ppm
  Intake Ratio: 0.8254
  Preference (%) control composition: 12.0%
  Preference (%) test composition: 88.0%
  Status (vs. control): Win
[1]
  Intake Ratio: 0.7476
  Preference (%) control composition: 21.7%
  Preference (%) test composition: 78.3%
  Status (vs. control): Win
Exp. No. 2, 20 ppm
  Intake Ratio: 0.9731
  Preference (%) control composition: 0.0%
  Preference (%) test composition: 100.0%
  Status (vs. control): Win
[2]
  Intake Ratio: 0.8679
  Preference (%) control composition: 8.0%
  Preference (%) test composition: 92.0%
  Status (vs. control): Win
